{"source": "patent US8215314B2", "about": "“Photochemical tissue bonding” (The General Hospital Corporation, priority 2000, dated 2012)", "key": {"pig vein and arteries": {"system": "pig vein and arteries", "experiment": "Ex vivo porcine blood vessel anastomosis by PTB (cuff approach), tensile strength", "conditions": "0.1% v/v in saline, 532 nm, 0.5 W/cm2 for 2.5 minutes", "description": "In adhering segments of vascular tissue according to methods of the invention, two pieces of blood vessel are joined and photochemically bonded together to create an intimate, watertight seal. Two methods were considered to accomplish anastomosis. The “cuff” approach, which entails administration of the photoactive dye to the outer surface of the proximal vessel and the inside surface of the distal stump of the vessel. The distal stump is folded back on itself and the proximal stump brought into contact. The distal cuff is then placed over the proximal vessel to form a cuff. The overlap region in the cuff is then irradiated with visible light to bond the ends of the vessel together. FIG. 30 represents a schematic overview of the cuff approach.\nThe cuff approach was used with pig vein and arteries ex vivo. The vessels were sharply transected using a scalpel. Rose bengal at a concentration of 0.1% v/v in saline was applied to the outside surface of the proximal stump of the vessel and the inside surface of the distal vessel. The vessels were then mounted over a cylindrical glass rod that acts as support for the hollow vessels. A distal cuff was formed by folding the end of the distal end back on itself, as described above and in FIG. 30. […]"}, "rabbit corneas": {"system": "rabbit corneas", "experiment": "In vivo PTB of 6-mm penetrating keratoplasty incisions anchored by sutures, bursting pressure", "conditions": "1% Rose Bengal, 191 J/cm2, 6-mm PK incision with 4-16 sutures", "procedure": "PTB was performed in vivo in New Zealand rabbits to repair two types of corneal wounds.\nIn Group II, 6-mm Penetrating Keratoplasy (PK) incisions anchored by 4-16 sutures were performed in 16 rabbit corneas. Half of the corneas in each group underwent PTB where 1% Rose Bengal dye was applied to the wound edges followed by laser irradiation at fluence of 191 J/cm2. Photoactivation was performed with a 514 nm Argon Laser and a 532-nm CW Nd: YAG laser. Wound leak and incisional bursting pressure were determined in vivo in the immediate postoperative period."}, "[1]": {"system": "partial thickness skin grafts", "experiment": "Skin graft adherence after PTB, ex vivo (tensiometer)", "set-up": "species or system mini pigs", "conditions": "RB concentration 0.1% (w/v) among 0, 0.01, 0.1, 1%", "description": "To test the ability of PTB to quickly and effectively bond skin grafts to a wound site, an ex vivo model utilizing mini pigs was developed. The use of porcine models in wound healing is well known by those skilled in the art. The similarities between porcine wound healing and that of humans enable one to extrapolate the therapeutic results obtained in a porcine model system to a therapeutic result in humans.\nPartial thickness skin grafts of approximately 0.020 inch (corresponding to the thick partial-thickness grafts used in clinical situation) were harvested from mini pigs (2 to 7 months old, weight 15 to 43 kgs) after euthanasia. The grafts were temporarily stored by wrapping the graft around gauze, which was soaked in phosphate buffered saline (PBS). […]\nThe grafts were irradiated using a continuous-wave (CW) argon-ion laser (Innova 100; Coherent, Palo Alto, Calif.) at 514.5 nm. […] The irradiance of laser applied was 0.56 and 1.68 W/cm^2 while the dose-dependent response of the laser fluence from 126 to 504 J/cm^2 was determined. […]\nFollowing the irradiation, the adherence of the skin grafts was tested utilizing a tensiometer (Chartillon) coupled to a force transducer (DFA2, Ametek). The applied force versus the displacement of the force plate was acquired through the transducer and recorded by computer software (Labview 4.0, National Instrument). […]"}, "[2]": {"system": "epidermal cells of skin grafts", "experiment": "Trypan blue exclusion assay of epidermal cells from skin grafts after PTB", "assay_type": "cell-based, mini pigs", "conditions": "0.1% RB", "procedure": "The cell viability in the skin grafts was further assessed quantitatively by trypan blue exclusion assay. The upper grafts were chosen to be examined because they absorbed more light, and therefore would be damaged to a greater extent, if any, than the lower ones. Following irradiation, the upper skin grafts were incubated with 1 mg/ml dispase (Life Technologies, Rockville, Md.) in PBS overnight at 4° C. The epidermis was gently peeled off from the dermis and washed twice in PBS. Epidermal cells were released by incubating the epidermis with 0.25% trypsin-EDTA (Cellgro) at 37° C. for 15 minutes, accompanied by gentle agitation. Fetal calf serum (FCS) was added to inhibit trypsin activity and the cell suspension was then centrifuged at 2500 rpm for 10 mins. The cell pellet was washed once and re-suspended in PBS. The trypan blue exclusion assay was performed after mixing equal volumes of cell suspension and 0.2% (w/v) trypan blue and loading onto a hemocytometer. The number of viable cells released from each skin graft was calculated. After preparing a single cell suspension from intact epidermis, the cell viability was assessed (FIG. 11)."}}}
{"smiles": "O=C([O-])c1c(Cl)c(Cl)c(Cl)c(Cl)c1-c1c2cc(I)c(=O)c(I)c-2oc2c(I)c([O-])c(I)cc12.[Na+].[Na+]", "note": "[Rose Bengal]", "values": [{"measurement": "stretch of anastomosed vessels before rupture", "setting": "pig vein and arteries", "value": "3-4 times their normal length"}, {"measurement": "immediate bursting pressure", "setting": "rabbit corneas", "value": "410±70", "unit": "mm Hg"}, {"measurement": "skin graft adherence levels", "setting": "[1]", "value": "optimal increase"}, {"measurement": "number of viable cells per skin graft vs control", "setting": "[2]; 0.56 W/cm^2, 126, 252 and 504 J/cm^2", "value": "not significantly different"}, {"measurement": "number of viable cells relative to control group", "setting": "[2]; 504 J/cm^2", "value": "~80", "unit": "%"}]}
